Measurements reported in patent EP2266984A1, “Pyrido[2,3-d]pyrimidines as Wnt antagonists for treatment of cancer and arthritis” (Deutsches Krebsforschungszentrum Stiftung des öffentlichen …, priority 2009, dated 2010).

Key:
Hek293T = assay: CellTiterGlo cytotoxicity assay in Hek293T; assay type: cell-based; details: 24h after compound addition
Protocol: (§1) For examination of cytotoxicity in these cancer cell lines the commercial available CellTiterGlo® Reagent (Promega, USA) was used according to the manufactor.
(§2) Compounds were applied to Hek293T (denoted (1)) or HepG2 (denoted (2)), cultured in Dulbecco's Modified Eagles Medium, supplemented with 10% fetal calf serum and 1% penicillin/streptomycin. Cells were grown in T75 flasks at 37 °C, 5% CO2 and trypsinized when 60-80% confluent by adding 2 ml of 0.25% Trypsin-EDTA solution. Cells were then re-suspended into culture medium yielding approx. 4000 cells (1) or 4500 cells (2), suspended in 30 microl medium. 48h after cell seeding, compounds were added to yield the desired final concentrations. 24h after compound addition cytotoxicity was evaluated. For this purpose the media was removed and CellTiterGlo® was added according to the manufactors manual. In this assay the luciferase emission readout is directly correlated with the cellular amount of ATP, low luciferase emission thus is reflecting cytotoxicity of a compound. For the evaluation of the IC50 the compound was applied in increasing concentrations yielding final concentrations per well of 5nM - 100 microM.

HepG2 = assay: CellTiterGlo cytotoxicity assay in HepG2; assay type: cell-based; details: 24h after compound addition
Protocol: as §1, §2

HFF-1 = assay: Cell line specific cytotoxicity, HFF-1 fibroblasts; assay type: cell-based, human; details: 10 microM; HFF-1 cell line
Protocol: For examination of cell line-specific cytotoxicity, compounds were applied to human colorectal cancer cells (HCT116, denoted (1); SW480, denoted (2); Dld-1, denoted (3)) and human fibroblasts (HFF-1, denoted (4); HS-68, denoted (5)), cultured in Mc Coy's (1) and Dulbecco's Modified Eagles Medium ((2)-(5)), supplemented with 10% ((1)-(3)) and 20% ((4), (5)) fetal calf serum and 1% penicillin/streptomycin. Cells were grown in T75 flasks at 37 °C, 5% CO2 and trypsinized when 60-80% confluent by adding 2 ml of 0.25% Trypsin-EDTA solution. Cells were then re-suspended into culture medium yielding approx. 750 cells, suspended in 45 microl medium, were plated into each well of a black 384-well plate for fluorescence imaging experiments. […] Compound incubation was terminated by (a) fixation and (b) permeabilisation of cells, followed by (c) fluorescence labeling of cell nuclei for cytometric quantification or by immunocytochemistry for microscopic evaluation of cell morphology. […]
Cell line-specific cytotoxicity was quantified by counting the number of Hoechst labeled nuclei per well of a 384-well plate using a plate cytometer. Data obtained with the cytometer was analysed using standard data analysis software.
Identified hits were further evaluated by visual inspection of fluorescence micrographs obtained from imaging using a conventional fluorescence microscope.

Structure (SMILES) | Normalized toxicity values (Hek293T) (Hek293T; 0.005 microM) | Normalized toxicity values (Hek293T) (Hek293T; 0.015 microM) | Normalized toxicity values (Hek293T) (Hek293T; 0.046 microM) | Normalized toxicity values (Hek293T) (Hek293T; 0.137 microM) | Normalized toxicity values (Hek293T) (Hek293T; 0.412 microM) | Normalized toxicity values (Hek293T) (Hek293T; 1.235 microM) | Normalized toxicity values (Hek293T) (Hek293T; 3.704 microM) | Normalized toxicity values (Hek293T) (Hek293T; 11.111 microM) | Normalized toxicity values (Hek293T) (Hek293T; 33.333 microM) | Normalized toxicity values (Hek293T) (Hek293T; 100.000 microM) | Normalized toxicity values (HepG2) (HepG2; 0.005 microM) | Normalized toxicity values (HepG2) (HepG2; 0.015 microM) | Normalized toxicity values (HepG2) (HepG2; 0.046 microM) | Normalized toxicity values (HepG2) (HepG2; 0.137 microM) | Normalized toxicity values (HepG2) (HepG2; 0.412 microM) | Normalized toxicity values (HepG2) (HepG2; 1.235 microM) | Normalized toxicity values (HepG2) (HepG2; 3.704 microM) | Normalized toxicity values (HepG2) (HepG2; 11.111 microM) | Normalized toxicity values (HepG2) (HepG2; 33.333 microM) | Normalized toxicity values (HepG2) (HepG2; 100.000 microM) | also measured
CCOC(=O)c1c(C)nc2c(c(N3CCN(Cc4ccccc4F)CC3)nc(=O)n2-c2ccccc2)c1-c1ccccc1 [Example 150] | 1.1200 | 1.0780 | 1.0735 | 1.0278 | 1.0553 | 0.9703 | 1.1975 | 1.2900 | 1.3025 | 1.5500 | 1.1325 | 1.1350 | 1.0275 | 1.0350 | 0.9625 | 0.9870 | 1.0658 | 1.0800 | 1.1425 | 1.2175 | 
CCOC(=O)c1c(C)nc2c(c(N3CCN(C/C=C/c4ccccc4)CC3)nc(=O)n2-c2ccccc2)c1-c1ccccc1 [Example 153, 7-Methyl-2-oxo-1,5-diphenyl-4-[4-((E)-3-phenyl-allyl)-piperazin-1-yl]-1,2-dihydro-pyrido[2,3-d]pyrimidine-6-carboxylic acid ethyl ester] | 1.0725 | 1.0650 | 1.0425 | 0.9703 | 1.0800 | 1.0623 | 1.1125 | 1.1475 | 1.1375 | 0.0290 | 1.0700 | 1.0658 | 0.9725 | 0.9743 | 0.9480 | 0.9543 | 1.1225 | 1.2725 | 1.2650 | 0.0718 | Effect on normal cells (HFF-1) (HFF-1): not affected
CCOC(=O)c1c(C)nc2c(c(N3CCN(C(c4ccc(F)cc4)c4ccc(F)cc4)CC3)nc(=O)n2-c2ccccc2)c1-c1ccccc1 [Example 157] | 1.1275 | 1.0600 | 1.1075 | 1.0975 | 0.9535 | 0.9633 | 1.0078 | 1.1475 | 1.3825 | 1.5650 | 1.1125 | 1.0775 | 1.1275 | 1.0175 | 0.9413 | 0.9785 | 0.9853 | 1.0043 | 1.1100 | 1.1575 | 
